Test: Human plasma protein binding (equilibrium dialysis)
Type: in vitro ADME
Details: dialysis 18 hours

Row | Human plasma protein binding (% free) | SMILES
1 | 1.5 | COc1ccc(OCCNCCCF)cc1[C@@H]1c2[nH]c3ccccc3c2C[C@@H](C)N1CC(F)(F)F [Example 7, 3-Fluoro-N-(2-(4-methoxy-3-((1R,3R)-3-methyl-2-(2,2,2-trifluoroethyl)-2,3,4,9-tetrahydro-1H-pyrido[3,4-b]indol-1-yl)phenoxy)ethyl)propan-1-amine]
2 | 0.10 | CCc1ccc(OCCNCCCF)cc1[C@@H]1c2[nH]c3ccccc3c2C[C@@H](C)N1CC(F)(F)F [Example 21, N-(2-(4-ethyl-3-((1R,3R)-3-methyl-2-(2,2,2-trifluoroethyl)-2,3,4,9-tetrahydro-1H-pyrido[3,4-b]indol-1-yl)phenoxy)ethyl)-3-fluoropropan-1-amine]
3 | 0.61 | C[C@@H]1Cc2c([nH]c3ccccc23)[C@@H](c2cc(OCCNCCCF)ccc2Cl)N1CC(F)(F)F [Example 22, N-(2-(4-chloro-3-((1R,3R)-3-methyl-2-(2,2,2-trifluoroethyl)-2,3,4,9-tetrahydro-1H-pyrido[3,4-b]indol-1-yl)phenoxy)ethyl)-3-fluoropropan-1-amine]
4 | 0.080 | C[C@@H]1Cc2c([nH]c3ccccc23)[C@@H](c2cccc(OCCNCCCF)c2Cl)N1CC(F)(F)F [Example 25, N-(2-(2-chloro-3-((1R,3R)-3-methyl-2-(2,2,2-trifluoroethyl)-2,3,4,9-tetrahydro-1H-pyrido[3,4-b]indol-1-yl)phenoxy)ethyl)-3-fluoropropan-1-amine]
5 | 0.42 | COc1c(F)cc(OCCNCCCF)cc1[C@@H]1c2[nH]c3ccccc3c2C[C@@H](C)N1CC(F)(F)F [Example 27, 3-fluoro-N-(2-(3-fluoro-4-methoxy-5-((1R,3R)-3-methyl-2-(2,2,2-trifluoroethyl)-2,3,4,9-tetrahydro-1H-pyrido[3,4-b]indol-1-yl)phenoxy)ethyl)propan-1-amine]
6 | 1.2 | COc1cc(F)c(OCCNCCCF)cc1[C@@H]1c2[nH]c3ccccc3c2C[C@@H](C)N1CC(F)(F)F [Example 28, 3-fluoro-N-(2-(2-fluoro-4-methoxy-5-((1R,3R)-3-methyl-2-(2,2,2-trifluoroethyl)-2,3,4,9-tetrahydro-1H-pyrido[3,4-b]indol-1-yl)phenoxy)ethyl)propan-1-amine]
7 | <3.2 | COc1c(F)cc(OCCNCCCF)c(F)c1[C@@H]1c2[nH]c3ccccc3c2C[C@@H](C)N1CC(F)(F)F [Example 29, N-(2-(2,5-difluoro-4-methoxy-3-((1R,3R)-3-methyl-2-(2,2,2-trifluoroethyl)-2,3,4,9-tetrahydro-1H-pyrido[3,4-b]indol-1-yl)phenoxy)ethyl)-3-fluoropropan-1-amine]
8 | 0.72 | C[C@@H]1Cc2c([nH]c3ccccc23)[C@@H](c2cc(OCCNCCCF)cc(F)c2F)N1CC(F)(F)F [Example 30, N-(2-(3,4-difluoro-5-((1R,3R)-3-methyl-2-(2,2,2-trifluoroethyl)-2,3,4,9-tetrahydro-1H-pyrido[3,4-b]indol-1-yl)phenoxy)ethyl)-3-fluoropropan-1-amine]
9 | 0.41 | C[C@@H]1Cc2c([nH]c3ccccc23)[C@@H](c2cc(F)cc(OCCNCCCF)c2F)N1CC(F)(F)F [Example 31, N-(2-(2,5-difluoro-3-((1R,3R)-3-methyl-2-(2,2,2-trifluoroethyl)-2,3,4,9-tetrahydro-1H-pyrido[3,4-b]indol-1-yl)phenoxy)ethyl)-3-fluoropropan-1-amine]
10 | 2 | COc1ncc(OCCNCCCF)cc1[C@@H]1c2[nH]c3ccccc3c2C[C@@H](C)N1CC(F)(F)F [Example 36, 3-fluoro-N-(2-((6-methoxy-5-((1R,3R)-3-methyl-2-(2,2,2-trifluoroethyl)-2,3,4,9-tetrahydro-1H-pyrido[3,4-b]indol-1-yl)pyridin-3-yl)oxy)ethyl)propan-1-amine]
11 | 2.3 | Cc1ncc(OCCNCCCF)cc1[C@@H]1c2[nH]c3ccccc3c2C[C@@H](C)N1CC(F)(F)F [Example 37, 3-fluoro-N-(2-((6-methyl-5-((1R,3R)-3-methyl-2-(2,2,2-trifluoroethyl)-2,3,4,9-tetrahydro-1H-pyrido[3,4-b]indol-1-yl)pyridin-3-yl)oxy)ethyl)propan-1-amine]
12 | 0.91 | Cc1c(OCCNCCCF)cncc1[C@@H]1c2[nH]c3ccccc3c2C[C@@H](C)N1CC(F)(F)F [Example 38, 3-fluoro-N-(2-((4-methyl-5-((1R,3R)-3-methyl-2-(2,2,2-trifluoroethyl)-2,3,4,9-tetrahydro-1H-pyrido[3,4-b]indol-1-yl)pyridin-3-yl)oxy)ethyl)propan-1-amine]
13 | 0.89 | COc1ccc(NCCNCCCF)cc1[C@@H]1c2[nH]c3ccccc3c2C[C@@H](C)N1CC(F)(F)F [Example 40, N1-(3-fluoropropyl)-N2-(4-methoxy-3-((1R,3R)-3-methyl-2-(2,2,2-trifluoroethyl)-2,3,4,9-tetrahydro-1H-pyrido[3,4-b]indol-1-yl)phenyl)ethane-1,2-diamine]
14 | 1.8 | COc1ncc(NCCNCCCF)cc1[C@@H]1c2[nH]c3ccccc3c2C[C@@H](C)N1CC(F)(F)F [Example 41, N1-(3-fluoropropyl)-N2-(6-methoxy-5-((1R,3R)-3-methyl-2-(2,2,2-trifluoroethyl)-2,3,4,9-tetrahydro-1H-pyrido[3,4-b]indol-1-yl)pyridin-3-yl)ethane-1,2-diamine]
15 | 2.8 | COc1ccc(NCCNCCCF)nc1[C@@H]1c2[nH]c3ccccc3c2C[C@@H](C)N1CC(F)(F)F [Example 43, N1-(3-fluoropropyl)-N2-(5-methoxy-6-((1S,3R)-3-methyl-2-(2,2,2-trifluoroethyl)-2,3,4,9-tetrahydro-1H-pyrido[3,4-b]indol-1-yl)pyridin-2-yl)ethane-1,2-diamine]

More lines, now with the values behind:

Row | SMILES | Human plasma protein binding (% free)
16 | CC(CN1[C@H](c2c(Cl)ccc(OCCNCCCF)c2Cl)c2[nH]c3ccc(F)cc3c2C[C@H]1C)C(=O)O (single isomer, unassigned) [Example 129] | 23
17 | CC(CN1[C@H](c2c(Cl)ccc(OCCNCCCF)c2Cl)c2[nH]c3ccc(F)cc3c2C[C@H]1C)C(=O)O (single isomer, unassigned) [Example 130] | 7.8
18 | Cc1c(OCCN(C)CCCF)ncc(F)c1[C@@H]1c2[nH]c3ccccc3c2C[C@@H](C)N1C(C)CC(=O)O (single isomer, unassigned) [Example 158] | 21
19 | Cc1c(OCCN(C)CCCF)ncc(F)c1[C@@H]1c2[nH]c3ccccc3c2C[C@@H](C)N1C(C)CC(=O)O (single isomer, unassigned) [Example 159] | 13
20 | C[C@@H]1Cc2c([nH]c3ccccc23)[C@@H](c2c(F)ccc(OCCNCCCF)c2F)N1CC1(F)COC1 [Example 13, N-(2-(2,4-difluoro-3-((1R,3R)-2-((3-fluorooxetan-3-yl)methyl)-3-methyl-2,3,4,9-tetrahydro-1H-pyrido[3,4-b]indol-1-yl)phenoxy)ethyl)-3-fluoropropan-1-amine] | 3.5
21 | C[C@@H]1Cc2c([nH]c3ccc(F)cc23)[C@@H](c2c(F)ccc(OCCNCCCF)c2F)N1CC(F)(F)CO [Example 15, 3-((1R,3R)-1-(2,6-difluoro-3-(2-((3-fluoropropyl)amino)ethoxy)phenyl)-6-fluoro-3-methyl-1,3,4,9-tetrahydro-2H-pyrido[3,4-b]indol-2-yl)-2,2-difluoropropan-1-ol] | 3.2
22 | C[C@@H]1Cc2c([nH]c3ccccc23)[C@@H](c2cc(OCCNCCCF)ccc2C#N)N1CC(F)(F)F [Example 23, 4-(2-((3-fluoropropyl)amino)ethoxy)-2-((1R,3R)-3-methyl-2-(2,2,2-trifluoroethyl)-2,3,4,9-tetrahydro-1H-pyrido[3,4-b]indol-1-yl)benzonitrile] | 3.7
23 | COc1ccc(OCCNCCCF)c(C)c1[C@@H]1c2[nH]c3ccccc3c2C[C@@H](C)N1CC(F)(F)F [Example 26, 3-fluoro-N-(2-(4-methoxy-2-methyl-3-((1R,3R)-3-methyl-2-(2,2,2-trifluoroethyl)-2,3,4,9-tetrahydro-1H-pyrido[3,4-b]indol-1-yl)phenoxy)ethyl)propan-1-amine] | 0.22
24 | C[C@@H]1Cc2c([nH]c3ccccc23)[C@@H](c2c(F)c(F)cc(OCCNCCCF)c2F)N1CC(F)(F)F [Example 32, 3-fluoro-N-(2-(2,4,5-trifluoro-3-((1R,3R)-3-methyl-2-(2,2,2-trifluoroethyl)-2,3,4,9-tetrahydro-1H-pyrido[3,4-b]indol-1-yl)phenoxy)ethyl)propan-1-amine] | 0.52
25 | C[C@@H]1Cc2c([nH]c3ccccc23)[C@@H](c2cccc(OCCNCCCF)n2)N1CC(F)(F)F [Example 34, 3-fluoro-N-(2-((6-((1S,3R)-3-methyl-2-(2,2,2-trifluoroethyl)-2,3,4,9-tetrahydro-1H-pyrido[3,4-b]indol-1-yl)pyridin-2-yl)oxy)ethyl)propan-1-amine] | 2.2
26 | C[C@@H]1Cc2c([nH]c3ccccc23)[C@@H](c2cc(OCCNCCCF)ccn2)N1CC(F)(F)F [Example 35, 3-fluoro-N-(2-((2-((1S,3R)-3-methyl-2-(2,2,2-trifluoroethyl)-2,3,4,9-tetrahydro-1H-pyrido[3,4-b]indol-1-yl)pyridin-4-yl)oxy)ethyl)propan-1-amine] | 5.4
27 | C[C@@H]1Cc2c([nH]c3ccccc23)[C@@H](c2cc(OCCNCCCF)ccc2Cl)N1CC(F)(F)CO [Example 44, 3-((1R,3R)-1-(2-chloro-5-(2-((3-fluoropropyl)amino)ethoxy)phenyl)-3-methyl-1,3,4,9-tetrahydro-2H-pyrido[3,4-b]indol-2-yl)-2,2-difluoropropan-1-ol] | 2.3
28 | COc1ccc(OCCNCCCF)cc1[C@@H]1c2[nH]c3ccc(F)cc3c2C[C@@H](C)N1CC(F)(F)CO [Example 46, 2,2-difluoro-3-((1R,3R)-6-fluoro-1-(5-(2-((3-fluoropropyl)amino)ethoxy)-2-methoxyphenyl)-3-methyl-1,3,4,9-tetrahydro-2H-pyrido[3,4-b]indol-2-yl)propan-1-ol] | 2.4
